Data on one compound can be found in EP4656186A1, “NOVEL SOLID DISPERSION AND METHOD FOR PREPARING SAME” (ST Pharm Co., Ltd., priority 2023, dated 2024).

Data set [1] is described as follows: Solubility in fasted state simulated intestinal fluid (FaSSIF). It is filed as physicochemical. As to conditions: thermodynamic from solid, After 4 hours at room temperature. An excerpt: Experimental Example 2: Confirmation of Solubility of Examples 1 to 5 in FaSSIF
The solubility of the solid dispersions prepared in Examples 1 to 5 in fasted state simulated intestinal fluid (FaSSIF) was confirmed, and the results are shown in Table 1.
Experimental Example 4: Confirmation of Solubility of Examples 6 to 7 in FaSSIF
The solubility of the solid dispersions prepared in Examples 6 to 7 in fasted state simulated intestinal fluid (FaSSIF) was confirmed in the same manner as in Experimental Example 2, and the results are shown in Table 2.

The nature of data set [2]: Pharmacokinetic test (in vivo), oral administration, plasma concentration by LC-MS/MS. More on the design: species or system rats. As to conditions: 10 mg/kg. On the procedure: Experimental Example 5: Confirmation of Bioavailability of Examples 1 and 6
Specifically, the drug was administered orally to rats, and blood was collected from the jugular vein at a predetermined time. The collected blood was centrifuged to separate plasma, pretreated, and then the concentration was analyzed by LC-MS/MS. Non-compartmental pharmacokinetic parameters were calculated using WinNonlin (Phoenix™, version 6.1) from the analyzed blood concentration-time data of the drug, and the results are shown in Table 3.

The structures appear in SMILES notation.

Usually solubility stands for the concentration that dissolves in the medium under given conditions. A word on the AUC(0-t): it is exposure summed from dosing to a finite time, without extrapolation to infinity. Lower therefore signals low exposure. As usually defined, the Cmax is the peak of the concentration-time curve. In general, Tmax refers to the time from dosing to the highest level. Broadly, the half-life is the time needed for the level to fall by half in the phase considered. High values mean slow loss, low ones fast loss. In data set [1] (Table 1 (Experimental Example 2)), `COCCOc1cc(F)c(N2CCN(c3nc4c(nnn4C)c(=O)[nH]3)CC2)c(F)c1` [Compound of Chemical Formula I] came in with a solubility at 4 h of 1.89 µg/mL. The same compound gave a solubility at 4 h in data set [1] (Table 2 (Experimental Example 4)) of 1.66 µg/mL. Moreover, the “AUClast Fold change” value in data set [2] (relative to the compound of Chemical Formula I) is 1.00. Also, in data set [2] (rat, plasma), the AUC(0-t) worked out at 5460 ng·h/mL, the concentration peaked (Cmax) at 1020 ng/mL, the time of peak concentration (Tmax) came out at 1 h and the half-life was 5.39 h.
